Experimental findings from ChEMBL document CHEMBL4196143, “Total Synthesis and Structure Revision of Palmarumycin B6” (2018) are described below.

For this assay, the system named is Aedes albopictus. The assay is described as follows: Larvicidal activity against Aedes albopictus assessed as […] larval mortality after 24 hrs. Type of assay: functional.

As for `O=C1CCC2(Oc3cccc4cccc(c34)O2)c2ccc(Cl)c(O)c21`, the LC50 (in general, the concentration that kills 50% of the test population) turned out to be 32.7 µM.

On to `O=C1CCC2(Oc3cccc4cccc(c34)O2)c2c(Cl)ccc(O)c21`, for which the LC50 came to 227 µM.
